Results as given in publication PMC8131319, “The molecular basis of spectral tuning in blue- and red-shifted flavin-binding fluorescent proteins” (The Journal of Biological Chemistry, 2021).

Experiments:
Experiment in all cases: X-ray crystallography
Assay type in all cases: binding
CagFbFP [1] = biological target: T1, CagFbFP (Chloroflexus aggregans, UniProt B8GAY9, C85A/Q148K); conditions: 1.36 Å; pH 6.5; noncovalent; morpholine fragment near FMN; second structure 6YX6
T1 construct: gene Cagg_3753; LOV domain from residue 47 (about 47-153), C-terminal His-tag, expressed in E. coli from pET11, homodimer

CagFbFP [2] = biological target: T2, CagFbFP (Chloroflexus aggregans, UniProt B8GAY9, I52T/C85A/Q148K); conditions: 1.8 Å; space group P2_12_12; pH 5.0; noncovalent
T2 construct: gene Cagg_3753; LOV domain from residue 47 (about 47-153), C-terminal His-tag, expressed in E. coli from pET11, homodimer

iLOV = biological target: T3, iLOV (Arabidopsis thaliana, UniProt P93025, S394T/S409G/C426A/I452T/F470L/M475V/Q489K); conditions: 1.45 Å; space group P4_32_12; pH 4.6; noncovalent; acetate ion near FMN-N5
T3 construct: gene PHOT2; improved LOV2 domain (about residues 387-496 of phot2), expressed in E. coli from pET28a, His-tag (IMAC), monomer about 10 kDa

CagFbFP [3] = biological target: T4, CagFbFP (Chloroflexus aggregans, UniProt B8GAY9, I52T/C85A); conditions: pH 5.5; noncovalent; structure virtually identical to parental CagFbFP
T4 construct: gene Cagg_3753; LOV domain from residue 47 (about 47-153), C-terminal His-tag, expressed in E. coli from pET11, homodimer
T4 sequence (B8GAY9 entry or part of it I52T/C85A): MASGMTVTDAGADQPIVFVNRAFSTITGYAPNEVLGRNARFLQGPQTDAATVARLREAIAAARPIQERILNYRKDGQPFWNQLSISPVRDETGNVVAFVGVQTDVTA

T2 sequence (B8GAY9 entry or part of it I52T/C85A/Q148K): as the sequence (B8GAY9 entry or part of it I52T/C85A) above, with Q102K counted along it
T1 sequence (B8GAY9 entry or part of it C85A/Q148K): as the sequence (B8GAY9 entry or part of it I52T/C85A) above, with T6I, Q102K counted along it
T3 sequence (P93025 387-496 S394T/S409G/C426A/I452T/F470L/M475V/Q489K limits assumed): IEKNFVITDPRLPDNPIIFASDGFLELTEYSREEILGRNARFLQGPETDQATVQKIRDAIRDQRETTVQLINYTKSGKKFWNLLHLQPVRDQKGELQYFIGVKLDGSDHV

X-ray crystallography (iLOV): hydrogen bond network to FMN and N468 | X-ray crystallography (CagFbFP [3]): X-ray structure of CagFbFP-I52T
SMILES: Cc1cc2nc3c(=O)[nH]c(=O)nc-3n(C[C@H](O)[C@H](O)[C@H](O)COP(=O)(O)O)c2cc1C [FMN]
X-ray crystallography (CagFbFP [1]): side chain of the introduced lysine is facing away from FMN | X-ray crystallography (CagFbFP [2]): structure of CagFbFP–I52T–Q148K with hydrogen bonds between K148, T52, and the FMN
